pIC50: −log10 of the molar value.
Tests used:
[1] = molecular target: T1, Protein mono-ADP-ribosyltransferase TIPARP (Homo sapiens, UniProt Q7Z3E1); assay: Inhibition of PARP7 (unknown origin) by HTRF assay
T1 sequence (Q7Z3E1 whole entry): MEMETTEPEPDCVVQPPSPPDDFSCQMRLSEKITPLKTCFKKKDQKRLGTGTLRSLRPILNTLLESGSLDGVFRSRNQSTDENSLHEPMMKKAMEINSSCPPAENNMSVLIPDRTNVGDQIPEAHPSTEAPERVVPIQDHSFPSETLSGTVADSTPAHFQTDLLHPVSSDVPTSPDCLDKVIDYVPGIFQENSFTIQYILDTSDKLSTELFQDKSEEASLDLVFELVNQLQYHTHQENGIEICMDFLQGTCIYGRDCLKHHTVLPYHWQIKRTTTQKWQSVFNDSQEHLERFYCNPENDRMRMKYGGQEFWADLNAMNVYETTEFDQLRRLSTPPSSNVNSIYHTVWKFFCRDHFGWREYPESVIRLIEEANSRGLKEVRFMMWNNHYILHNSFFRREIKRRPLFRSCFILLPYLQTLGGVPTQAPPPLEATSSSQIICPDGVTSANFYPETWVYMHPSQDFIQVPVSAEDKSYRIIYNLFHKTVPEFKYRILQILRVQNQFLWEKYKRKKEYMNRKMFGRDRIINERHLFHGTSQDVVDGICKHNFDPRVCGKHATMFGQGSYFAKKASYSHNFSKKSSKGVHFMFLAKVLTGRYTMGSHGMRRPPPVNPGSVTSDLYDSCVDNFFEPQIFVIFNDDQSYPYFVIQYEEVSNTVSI

[2] = Oral bioavailability in mouse at 100 mg/kg administered as single dose; format: ADME, organism-based; settings: in vivo

Structure (SMILES): C[C@@H](COCCC(=O)N1CCN2c3ncc(Cl)cc3OCC[C@@H]2C1)Oc1cn[nH]c(=O)c1C(F)(F)F
- pIC50 [1]: 9.00
- bioavailability [2]: 106%

Structure (SMILES): C[C@@H](COCCC(=O)N1CCN2c3ncc(C(F)(F)F)cc3OC[C@@H]2C1)Oc1cn[nH]c(=O)c1C(F)(F)F
- pIC50 [1]: 8.91
- bioavailability [2]: 121%

— ChEMBL document CHEMBL5126675, “Recent Discovery of PARP7 Inhibitors as Anticancer Agents” (ACS Med Chem Lett, 2022)
